Laboratory results taken from patent publication US20230263822A1, “MODULATION OF FACTOR 11 EXPRESSION” (Ionis Pharmaceuticals, Inc., priority 2008, published 2023).
Strand notation (5' to 3'): a small letter for the sugar, then the base; units joined by * are phosphorothioate-linked, units joined directly phosphodiester-linked; [ ] holds rarer units or linkages, { } end groups; capitals alone tell only the bases. e = 2'-O-(2-methoxyethyl) (MOE); [5mC] = 5-methylcytosine; d = 2'-deoxy (DNA)

Assays:
[1] = Hematology assays in cynomolgus monkeys (Example 46); type: in vivo
Description: (§1) Groups, each consisting of two male and two female monkeys, were injected subcutaneously with 25 mg/kg of ISIS 416850, ISIS 449709, ISIS 445522, ISIS 449710, ISIS 449707, ISIS 449711, ISIS 449708, 416858, and ISIS 445531. Antisense oligonucleotide was administered to the monkeys at 25 mg/kg three times per week for week 1 and 25 mg/kg twice per week for weeks 2 to 8. A control group, consisting of two male and two female monkeys was injected subcutaneously with PBS according to the same dosing regimen. Body weights were taken 14 days and 7 days before the start of treatment and were then measured weekly throughout the treatment period. Blood samples were collected 14 days and 5 days before the start of treatment and subsequently several times during the dosing regimen for PT and aPTT measurements, and measurement of various hematologic factors. On day 55, the monkeys were euthanized by exsanguination while under deep anesthesia, and organs harvested for further analysis.

[2] = system: blood coagulation; assay: PT and aPTT assay in cynomolgus monkeys (Example 46); type: in vivo; conditions: for PT ratio (INR) / aPTT ratio relative to PBS group: platelet poor plasma, relative to PBS group
Description: as §1
PT and aPTT were measured using platelet poor plasma (PPP) from […] treated with ISIS oligonucleotides. PT and aPTT values are provided in Tables 148 and 149 and are reported as International Normalized Ratio (INR) values. INR values for PT and aPTT were determined by dividing the PT or aPTT value for each experimental group by the PT or aPTT for the PBS treated group. This ratio was then raised to the power of the International Sensitivity Index (ISI) of the tissue factor used. […] Therefore, antisense reduction of Factor 11 with these ISIS oligonucleotides is useful for inhibiting the formation of a thrombus or clot in response to an abnormal vessel wall, but not in response to tissue injury.

ISIS 416850: MOE gapmer, nucleobases 1275 to 1318 of SEQ ID NO: 1 (Table 8) (antisense TGCACAGTTTCTGGCAGGCC; MOE gapmer, wing and gap sizes not given here)
HCT ([1]; Day 17): 42% | MCH ([1]; Day 17): 23.7 pg | MCHC ([1]; Day 17): 31.3 g/dL | MCV ([1]; Day 17): 76 fL | RBC count ([1]; Day 17): 5.6e+06 µL⁻¹ | WBC count ([1]; Day 17): 11000 µL⁻¹ | hemoglobin content ([1]; Day 17): 13.3 g/dL | monocytes ([1]; Day 17): 3.2% | neutrophils ([1]; Day 17): 95% | platelet count ([1]; Day 17): 467 ×100/μL | HCT ([1]; Day 31): 42% | MCH ([1]; Day 31): 23.3 pg | MCHC ([1]; Day 31): 31.0 g/dL | MCV ([1]; Day 31): 75 fL | RBC count ([1]; Day 31): 5.6e+06 µL⁻¹ | WBC count ([1]; Day 31): 12000 µL⁻¹ | hemoglobin content ([1]; Day 31): 13.1 g/dL | monocytes ([1]; Day 31): 3.7% | neutrophils ([1]; Day 31): 100% | platelet count ([1]; Day 31): 507 ×100/μL | HCT ([1]; Day 45): 42% | MCH ([1]; Day 45): 22.7 pg | MCHC ([1]; Day 45): 31.0 g/dL | MCV ([1]; Day 45): 75 fL | RBC count ([1]; Day 45): 5.7e+06 µL⁻¹ | WBC count ([1]; Day 45): 12000 µL⁻¹ | hemoglobin content ([1]; Day 45): 13.1 g/dL | monocytes ([1]; Day 45): 3.8% | neutrophils ([1]; Day 45): 85% | platelet count ([1]; Day 45): 453 ×100/μL | HCT ([1]; Day 55): 40% | MCH ([1]; Day 55): 22.9 pg | MCHC ([1]; Day 55): 30.9 g/dL | MCV ([1]; Day 55): 73 fL | RBC count ([1]; Day 55): 5.6e+06 µL⁻¹ | WBC count ([1]; Day 55): 10000 µL⁻¹ | hemoglobin content ([1]; Day 55): 12.7 g/dL | monocytes ([1]; Day 55): 3.4% | neutrophils ([1]; Day 55): 108% | platelet count ([1]; Day 55): 396 ×100/μL | HCT ([1]; Day-5): 44% | MCH ([1]; Day-5): 23.7 pg | MCHC ([1]; Day-5): 30.7 g/dL | MCV ([1]; Day-5): 77 fL | RBC count ([1]; Day-5): 5.7e+06 µL⁻¹ | WBC count ([1]; Day-5): 13000 µL⁻¹ | hemoglobin content ([1]; Day-5): 13.5 g/dL | monocytes ([1]; Day-5): 2.9% | neutrophils ([1]; Day-5): 109% | platelet count ([1]; Day-5): 517 ×100/μL | HCT ([1]; Day-14): 41% | MCH ([1]; Day-14): 23.7 pg | MCHC ([1]; Day-14): 32.0 g/dL | MCV ([1]; Day-14): 74 fL | RBC count ([1]; Day-14): 5.5e+06 µL⁻¹ | WBC count ([1]; Day-14): 12000 µL⁻¹ | hemoglobin content ([1]; Day-14): 13.0 g/dL | monocytes ([1]; Day-14): 1.9% | neutrophils ([1]; Day-14): 88% | platelet count ([1]; Day-14): 462 ×100/μL | PT ratio (INR) ([2]; Day 10): 0.99 | aPTT ratio relative to PBS group ([2]; Day 10): 0.98 | PT ratio (INR) ([2]; Day 17): 1.00 | aPTT ratio relative to PBS group ([2]; Day 17): 1.01 | PT ratio (INR) ([2]; Day 24): 0.97 | aPTT ratio relative to PBS group ([2]; Day 24): 1.05 | PT ratio (INR) ([2]; Day 31): 1.00 | aPTT ratio relative to PBS group ([2]; Day 31): 1.22 | PT ratio (INR) ([2]; Day 38): 1.01 | aPTT ratio relative to PBS group ([2]; Day 38): 1.25 | PT ratio (INR) ([2]; Day 45): 1.00 | aPTT ratio relative to PBS group ([2]; Day 45): 1.34 | PT ratio (INR) ([2]; Day 52): 1.02 | aPTT ratio relative to PBS group ([2]; Day 52): 1.32 | PT ratio (INR) ([2]; Day 55): 1.07 | aPTT ratio relative to PBS group ([2]; Day 55): 1.45 | PT ratio (INR) ([2]; Day −5): 1.00 | aPTT ratio relative to PBS group ([2]; Day −5): 0.90 | PT ratio (INR) ([2]; Day −14): 1.02 | aPTT ratio relative to PBS group ([2]; Day −14): 0.99 | aPTT ([2]; cynomolgus monkeys, 25 mg/kg): significantly prolonged

ISIS 449708: 3-8-3, 4-8-4, 2-10-2, 3-10-3 or 4-10-4 MOE microwalk gapmer (Table 46) (antisense eA*e[5mC]*eA*dG*dT*dT*dT*d[5mC]*dT*dG*dG*e[5mC]*eA*eG)
HCT ([1]; Day 17): 44% | MCH ([1]; Day 17): 22.9 pg | MCHC ([1]; Day 17): 30.7 g/dL | MCV ([1]; Day 17): 75 fL | RBC count ([1]; Day 17): 5.9e+06 µL⁻¹ | WBC count ([1]; Day 17): 11000 µL⁻¹ | hemoglobin content ([1]; Day 17): 13.5 g/dL | monocytes ([1]; Day 17): 5.4% | neutrophils ([1]; Day 17): 61% | platelet count ([1]; Day 17): 444 ×100/μL | HCT ([1]; Day 31): 43% | MCH ([1]; Day 31): 22.7 pg | MCHC ([1]; Day 31): 29.9 g/dL | MCV ([1]; Day 31): 75 fL | RBC count ([1]; Day 31): 5.8e+06 µL⁻¹ | WBC count ([1]; Day 31): 11000 µL⁻¹ | hemoglobin content ([1]; Day 31): 13.0 g/dL | monocytes ([1]; Day 31): 5.8% | neutrophils ([1]; Day 31): 57% | platelet count ([1]; Day 31): 378 ×100/μL | HCT ([1]; Day 45): 44% | MCH ([1]; Day 45): 22.2 pg | MCHC ([1]; Day 45): 30.6 g/dL | MCV ([1]; Day 45): 74 fL | RBC count ([1]; Day 45): 6e+06 µL⁻¹ | WBC count ([1]; Day 45): 10000 µL⁻¹ | hemoglobin content ([1]; Day 45): 13.3 g/dL | monocytes ([1]; Day 45): 7.0% | neutrophils ([1]; Day 45): 61% | platelet count ([1]; Day 45): 381 ×100/μL | HCT ([1]; Day 55): 42% | MCH ([1]; Day 55): 22.5 pg | MCHC ([1]; Day 55): 31.8 g/dL | MCV ([1]; Day 55): 74 fL | RBC count ([1]; Day 55): 5.8e+06 µL⁻¹ | WBC count ([1]; Day 55): 10000 µL⁻¹ | hemoglobin content ([1]; Day 55): 13.0 g/dL | monocytes ([1]; Day 55): 6.2% | neutrophils ([1]; Day 55): 75% | platelet count ([1]; Day 55): 348 ×100/μL | HCT ([1]; Day-5): 44% | MCH ([1]; Day-5): 22.7 pg | MCHC ([1]; Day-5): 30.2 g/dL | MCV ([1]; Day-5): 75 fL | RBC count ([1]; Day-5): 5.9e+06 µL⁻¹ | WBC count ([1]; Day-5): 10000 µL⁻¹ | hemoglobin content ([1]; Day-5): 13.2 g/dL | monocytes ([1]; Day-5): 2.6% | neutrophils ([1]; Day-5): 84% | platelet count ([1]; Day-5): 517 ×100/μL | HCT ([1]; Day-14): 41% | MCH ([1]; Day-14): 22.9 pg | MCHC ([1]; Day-14): 31.4 g/dL | MCV ([1]; Day-14): 73 fL | RBC count ([1]; Day-14): 5.7e+06 µL⁻¹ | WBC count ([1]; Day-14): 14000 µL⁻¹ | hemoglobin content ([1]; Day-14): 13.0 g/dL | monocytes ([1]; Day-14): 1.7% | neutrophils ([1]; Day-14): 73% | platelet count ([1]; Day-14): 387 ×100/μL | PT ratio (INR) ([2]; Day 10): 0.98 | aPTT ratio relative to PBS group ([2]; Day 10): 1.06 | PT ratio (INR) ([2]; Day 17): 1.00 | aPTT ratio relative to PBS group ([2]; Day 17): 1.05 | PT ratio (INR) ([2]; Day 24): 0.95 | aPTT ratio relative to PBS group ([2]; Day 24): 1.01 | PT ratio (INR) ([2]; Day 31): 1.06 | aPTT ratio relative to PBS group ([2]; Day 31): 1.09 | PT ratio (INR) ([2]; Day 38): 0.99 | aPTT ratio relative to PBS group ([2]; Day 38): 1.06 | PT ratio (INR) ([2]; Day 45): 0.99 | aPTT ratio relative to PBS group ([2]; Day 45): 1.06 | PT ratio (INR) ([2]; Day 52): 0.99 | aPTT ratio relative to PBS group ([2]; Day 52): 1.08 | PT ratio (INR) ([2]; Day 55): 1.04 | aPTT ratio relative to PBS group ([2]; Day 55): 1.11 | PT ratio (INR) ([2]; Day −5): 0.95 | aPTT ratio relative to PBS group ([2]; Day −5): 1.01 | PT ratio (INR) ([2]; Day −14): 1.03 | aPTT ratio relative to PBS group ([2]; Day −14): 1.07
